For seven molecules, LD50 and mortality results are on record in US4599362A, “2-aryl-ethyl ether derivatives and insecticidal and acaricidal agents containing said derivatives” (priority 1980, dated 1986).

Data set [1] can be described thus: Test 9: Toxicity Test (acute oral, mice). The settings on record: mouse, in vivo, po. Here is the method: In the fish toxicity test, the test compound was dissolved in acetone to form a 1% solution, and a predetermined amount of the solution was used. In the mouse toxicity test, the test compound of the present invention was dissolved or suspended in corn oil, and a predetermined amount of the solution or suspension was used.
A predetermined amount of a solution or suspension of a test compound in corn oil was orally administered to male mice having a body weight of 19 to 23 g (0.2 ml per 10 g of the body weight). After 7 days, the number of killed mice was counted and the influences on the mice were examined.

In data set [2] the test system is resistant green rice leafhopper (collected at Nakagawara). The data set is described as follows: Test 3: Effect on Resistant Green Rice Leafhopper. In kind it is in vivo, Nephotettix cincticeps Uhler. The settings on record: Nephotettix cincticeps, 24 h, read-out: Mortality (%) Green Rice Leafhopper Collected at Nakagawara. The procedure:
(§1) To a mixture of 20 parts of the compound of the present invention and 20 parts of Sorpol SM-200 (registered trademark for the product supplied by Toho Chemical Industrial Co., Ltd.) was added 60 parts of xylol, and the mixture was sufficiently blended. The obtained emulsifiable concentrate was diluted at a predetermined concentration with distilled water, and the obtained dilution was used.
(§2) Seedlings (having 2 to 3 leaves) of paddy rice were hydroponically cultured in a pot having a diameter of 5 cm. A chemical dilution having a concentration of 100 or 20 ppm, prepared in the same manner as described in Test 1, was applied with a sprayer at a rate of 3 ml per pot. The treated seedlings were air-dried and covered with a metal net cylinder, and female adults of resistant green rice leafhopper (collected at Nakagawara) and sensitive green rice leafhopper (collected at Chigasaki) were set, respectively, free in the pot at a density of 10 adults per pot. After of 24 hours, the numbers of killed and living adults were counted and the mortality was calculated. The test was made on three pots and the average value was calculated.

Data set [3] relates to sensitive green rice leafhopper (collected at Chigasaki). The data set is described as follows: Test 3: Effect on Sensitive Green Rice Leafhopper. In kind it is in vivo. Particulars: Nephotettix cincticeps, female adults, 24 hours. The procedure: as §1, §2

For `CCC(CC)(COCc1ccc(F)c(Oc2ccccc2)c1)c1ccc(Cl)cc1` [Compound 35, 3-Phenoxy-4-fluorobenzyl 2-(4-chlorophenyl)-2-ethylbutyl ether], the 50% lethal dose (LD50) (usually the dose expected to kill half of the subjects tested) at 168 h in data set [1] is over 500 mg/kg. In data set [2], the mortality (in general, the share of the test organisms that died) at 20 ppm worked out at 100% and the mortality at 100 ppm turned out to be 100%. In data set [3], the mortality at 20 ppm was 90% and the mortality at 100 ppm stood at 100%.
`CC(C)(COCc1cc(Oc2ccccc2)ccc1F)c1ccc(Cl)cc1` [Compound 32, 3-Phenoxy-6-fluorobenzyl 2-(4-chlorophenyl)-2-methylpropyl ether] returned a median lethal dose (LD50) at 168 h in data set [1] of over 500 mg/kg.
Still for that read-out and setting: the same measure for `Cc1ccc(C(C)(C)COCc2cc(Cl)cc(Oc3ccccc3)c2)cc1` [Compound 37, 3-Phenoxy-5-chlorobenzyl 2-(4-methylphenyl)-2-methylpropyl ether]: over 500 mg/kg; for `CC(=O)c1ccc(C(C)(C)COCc2ccc(F)c(Oc3ccccc3)c2)cc1` [Compound 40]: over 500 mg/kg.
The molecule `CC(C)(COCc1ccc(F)c(Oc2ccccc2)c1)c1ccc2ccccc2c1` [Compound 12, 3-Phenoxy-4-fluorobenzyl 2-(naphthalene-2-yl)-2-methylpropyl ether] showed a median lethal dose (LD50) at 168 h in data set [1] of over 500 mg/kg. The mortality at 20 ppm in data set [2] came to 95%; in data set [3], 80%. Also, the mortality at 100 ppm in data set [2] and in data set [3] was 100% each time.
`COc1ccc(Oc2cc(COCC(C)(C)c3ccc(Cl)cc3)ccc2F)cc1` [Compound 13, 3-(4-Methoxyphenoxy)-4-fluorobenzyl 2-(4-chlorophenyl)-2-methylpropyl ether] registered an LD50 at 168 h in data set [1] of over 500 mg/kg. In data set [2], the mortality at 20 ppm stood at 70% and the mortality at 100 ppm was found to be 100%. Besides, in data set [3], the mortality at 20 ppm was 50% and the mortality at 100 ppm was 100%.
`CC(C)C(COCc1ccc(F)c(Oc2ccccc2)c1)c1ccc(Cl)cc1` (centres unmarked) [Compound 8, 3-Phenoxy-4-fluorobenzyl 2-(4-chlorophenyl)-3-methylbutyl ether]: the LD50 at 168 h in data set [1] was over 500 mg/kg. Moreover, in data set [2], the mortality at 20 ppm amounted to 100% and the mortality at 100 ppm worked out at 100%. Further, in data set [3], the mortality at 20 ppm was determined as 100% and the mortality at 100 ppm turned out to be 100%.
